Data taken from patent publication US4994439A, “Transmembrane formulations for drug administration” (California Biotechnology Inc., priority 1989, dated 1991).

Experiments:
[1] = Critical micellar concentration by rhodamine 6G method; assay type: physicochemical; details: for CMC expressed on a molar basis: for the mixture: total surfactant; for CMC (as percent w/v): rhodamine 6G method
Description: The CMC is not a single value, but a range of concentrations. Because the range is relatively narrow, a single concentration within this transition zone is defined as the CMC. The CMC for each individual molecule and for each mixture can be determined experimentally in variety of ways; that illustrated below is the rhodamine 6G method of Carey, M.C., et al J Colloid Interface Sci (1969) 31:382-396. In this method, a low concentration of rhodamine 6G is added as a probe in a series of dispersions or solutions of the material to be tested. Where the solute concentration is below the CMC the probe molecule has a lambdamax at 523 nm; above the CMC, the probe binds to the micelle, which causes the lambdamax to increase to approximately 532 nm. By plotting the wavelength of the maximum absorption of the rhodamine 6G probe as a function of concentration of test materials, two lines of differing slopes are obtained which intersect at the CMC. The value of the intersection is then taken as the value of the CMC for the particular dispersion.
When this procedure is conducted for solutions of STDHF, Solulan C-24, or a 1:1 mixture of these materials, the CMC values (as percent w/v) obtained are 0.14% for STDHF; 0.028% for Solulan C-24; and 0.012% for the mixture of the two--i.e., 0.006% STDHF plus 0.006% Solulan C-24. Thus, for the mixture of STDHF and Solulan C-24, the CMC for the mixture is lower than that for either component alone. These values establish minimum concentration levels needed for the invention composition, and also establish that the two components form mixed micelles. If there were two separate populations of micelles, the CMC as measured by the above-described method would be equal to that of Solulan C-24. The existence of mixed micelles can be verified with other data as described below.

[2] = Transport of insulin across rat nasal tissue (plasma insulin, delivery via the nares); assay type: in vivo; details: 5IU/kg insulin intranasal, FIG. 5
Description: Efficacy in transport of insulin and of human growth hormone across rat nasal tissue was evaluated. Male Sprague-Dawley rats (Simonsen, Gilroy, CA, 240-300 gm) were anesthetized by subcutaneous injection of Acepromazine (3 mg/kg) followed 10 minutes later by intraperitoneal injections of inactin (100 mg/kg) for experiments shown in FIGS. 4-6 or by intraperitoneal (IP) injection of sodium pentobarbital (65 mg/kg), with additional doses given intravenously as necessary for experiments shown in FIGS. 7-8. A trachea tube was inserted to assist breathing.
In FIGS. 4-6, insulin or hGH was delivered directly via the nares; no esophageal cannula was inserted; the test solution (50 ul) was delivered 1 cm into the nasal cavity using PE 10 tubing attached to a Hamilton syringe.
In all cases, blood samples (0.5 ml) were drawn from a catheter in the right jugular vein and diluted with heparinized saline. Plasma (300-400 ul) was separated and stored at 4° C. for less than 48 hours prior to analysis of growth hormone using an immunoradiometric assay (Tandem R, Hybritech, Inc, San Diego, Calif.) or of insulin using a radioimmunoassay (Micromedic, ICN Micromedic Systems, Horsham, Pa.). […] Estimations of area under the curve (AUC) of plots of plasma insulin or hGH concentration versus time were calculated using the trapezoidal rule.

[3] = Quasi-elastic light-scattering of micelles; assay type: physicochemical
From the text: Solulan C-24 forms micelles with a radius of 75 angstroms; STDHF forms micelles with a radius of 17 angstroms, and the mixture (1:1 w/w) forms micelles with a radius of 40 angstroms.

red blood cells = test: Red blood cell (RBC) lysis as a measure of toxicity; assay type: cell-based; details: FIG. 3
Description: Consistent results were obtained when red blood cell (RBC) lysis was evaluated as a measure of toxicity and SGDHF was used as the fusidate component. […] Thus, the addition of the detergent appears to protect against the lytic effect of the fusidate.

Compound | CMC expressed on a molar basis [1] [mM] | CMC (as percent w/v) [1] [%] | time course of plasma insulin level [2] | micelle radius [3] [angstroms] | RBC lysis (red blood cells; concentration range of 0-0.3%) | RBC lysis (red blood cells; 0.3% concentration) [%]
CC(=O)O[C@H]1C[C@@]2(C)[C@@H](C[C@@H](O)[C@H]3[C@@]4(C)CC[C@@H](O)[C@@H](C)[C@@H]4CC[C@@]32C)/C1=C(\CCCC(C)C)C(=O)NCCS(=O)(=O)[O-].[Na+] [STDHF, sodium tauro-24,25-dihydrofusidate] | 2.0 | 0.14 | lower levels | 17 |  | 
polyoxyethylene-24-cholesterol ether [Solulan C-24] | 0.19 | 0.028 | lower levels | 75 | low values of RBC lysis | 
sodium glyco-24,25-dihydrofusidate [SGDHF] |  |  |  |  |  | 100
